Assay results published in US9938273B2 (Plexxikon Inc., priority 2015, dated 2018).

Experiments:
[1] = system: MOLM-14 D835Y cells, FLT3 ITD and FLT3 D835Y; assay: Cell proliferation assay (CellTiter-Glo), MOLM-14 D835Y; assay type: cell-based; conditions: Homo sapiens, 72 h, 3d-Growth, GMean
In short: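 Three-day growth at 37 °C, 5% CO2 under compound (1 μM top final, 1:3 dilutions, eight points, 0.2% DMSO), read as ATP luminescence by CellTiter-Glo for IC50. Cells: MOLM-14 with FLT3 ITD plus D835Y or F691L, and IL-3-deprived Ba/F3 transfected with FLT3 ITD/D835Y, 1×10^4 per well.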

[2] = molecular target: T1, FLT3-ITD (Homo sapiens, UniProt P36888); assay: AlphaScreen kinase assay with recombinant enzyme, FLT3-ITD; assay type: biochemical; conditions: 8pt; read-out: FLT3_ITD 8pt: IC50
T1 sequence (P36888 1-993): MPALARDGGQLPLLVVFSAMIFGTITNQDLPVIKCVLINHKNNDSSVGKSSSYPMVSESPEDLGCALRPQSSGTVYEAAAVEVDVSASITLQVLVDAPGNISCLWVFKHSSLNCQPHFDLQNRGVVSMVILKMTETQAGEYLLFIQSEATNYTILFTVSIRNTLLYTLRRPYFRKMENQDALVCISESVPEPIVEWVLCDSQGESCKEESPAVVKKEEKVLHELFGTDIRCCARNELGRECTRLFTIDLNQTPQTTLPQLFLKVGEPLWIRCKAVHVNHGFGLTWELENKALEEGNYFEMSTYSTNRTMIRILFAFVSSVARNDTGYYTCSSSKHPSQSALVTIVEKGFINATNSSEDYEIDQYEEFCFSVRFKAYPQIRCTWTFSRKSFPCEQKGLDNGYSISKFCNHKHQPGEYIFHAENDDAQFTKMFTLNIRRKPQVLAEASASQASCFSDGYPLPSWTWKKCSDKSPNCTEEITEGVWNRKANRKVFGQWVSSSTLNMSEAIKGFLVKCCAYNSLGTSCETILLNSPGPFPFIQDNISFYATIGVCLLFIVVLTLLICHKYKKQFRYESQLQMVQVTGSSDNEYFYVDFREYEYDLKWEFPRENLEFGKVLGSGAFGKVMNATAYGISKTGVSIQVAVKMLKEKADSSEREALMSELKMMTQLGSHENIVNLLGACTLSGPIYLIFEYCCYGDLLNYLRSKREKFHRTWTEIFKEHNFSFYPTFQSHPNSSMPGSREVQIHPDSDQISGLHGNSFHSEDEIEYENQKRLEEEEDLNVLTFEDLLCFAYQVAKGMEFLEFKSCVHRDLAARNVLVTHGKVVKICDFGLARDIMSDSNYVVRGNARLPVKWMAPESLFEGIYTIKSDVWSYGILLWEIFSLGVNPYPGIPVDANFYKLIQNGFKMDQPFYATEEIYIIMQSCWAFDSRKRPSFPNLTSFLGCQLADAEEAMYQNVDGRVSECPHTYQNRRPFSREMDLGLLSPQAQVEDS
In short: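 Read-out: AlphaScreen proximity signal at 580 nm (680 nm excitation), lost as peptide tyrosine phosphorylation falls. Substrate Biotin-GG(EEEEY)10EE at 30 nM; IC50 runs at 10 μM (FLT3 mutants) or 100 μM (c-KIT) final. Donor beads 20 min, then acceptor beads 60 min, room temperature.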

SMILES | IC50 [1] | IC50 [2]
O=S(=O)(NC1CCNCC1)c1cccc(-c2cnc3[nH]c(-c4ccccc4)cc3c2)n1 [Compound P-0086, 6-(2-phenyl-1H-pyrrolo[2,3-b]pyridin-5-yl)-N-(4-piperidyl)pyridine-2-sulfonamide] | 0.0001 to 10 µM | 0.0001 to 10 µM
CC(C)(C#N)NC(=O)c1cccc(-c2cnc3[nH]c(-c4cnn(CC(F)(F)F)c4)cc3c2)n1 [Compound P-0193, N-(1-cyano-1-methyl-ethyl)-6-[2-[1-(2,2,2-trifluoroethyl)pyrazol-4-yl]-1H-pyrrolo[2,3-b]pyridin-5-yl]pyridine-2-carboxamide] | 0.0001 to 10 µM | 0.0001 to 10 µM
NC1CCC(NS(=O)(=O)c2cccc(-c3cnc4[nH]c(-c5ccccc5)cc4c3)n2)CC1 (centres unmarked) [Compound P-0088, N-(4-aminocyclohexyl)-6-(2-phenyl-1H-pyrrolo[2,3-b]pyridin-5-yl)pyridine-2-sulfonamide] | 0.0001 to 10 µM | 0.0001 to 10 µM
CC(C)(C#N)NC(=O)c1cccc(-c2cnc3[nH]c(-c4cnc(C(F)(F)F)nc4)cc3c2)n1 [Compound P-0204, N-(1-cyano-1-methyl-ethyl)-6-[2-[2-(trifluoromethyl)pyrimidin-5-yl]-1H-pyrrolo[2,3-b]pyridin-5-yl]pyridine-2-carboxamide] | 0.0001 to 10 µM | 0.0001 to 10 µM
CN1CC(NC(=O)c2cccc(-c3cnc4[nH]c(-c5ccccc5)cc4c3)n2)C1 [Compound P-0075, N-(1-methylazetidin-3-yl)-6-(2-phenyl-1H-pyrrolo[2,3-b]pyridin-5-yl)pyridine-2-carboxamide] | 0.0001 to 10 µM | 0.0001 to 10 µM
O=C(Nc1cccc(-c2cnc3[nH]c(-c4ccccc4)cc3c2)n1)C1CNC1 [Compound P-0084, N-[6-(2-phenyl-1H-pyrrolo[2,3-b]pyridin-5-yl)-2-pyridyl]azetidine-3-carboxamide] | 0.0001 to 10 µM | 0.0001 to 10 µM
NC1CCC(NC(=O)c2cccc(-c3cnc4[nH]c(-c5ccccc5)cc4c3)n2)CC1 (centres unmarked) [Compound P-0018, N-(4-aminocyclohexyl)-6-(2-phenyl-1H-pyrrolo[2,3-b]pyridin-5-yl)pyridine-2-carboxamide] | 0.0001 to 10 µM | 0.0001 to 10 µM
NC1CCN(C(=O)c2cccc(-c3cnc4[nH]c(-c5ccccc5)cc4c3)n2)CC1 [Compound P-0013, (4-amino-1-piperidyl)-[6-(2-phenyl-1H-pyrrolo[2,3-b]pyridin-5-yl)-2-pyridyl]methanone] | 0.0001 to 10 µM | 0.0001 to 10 µM
Cc1nn(C(C)C)cc1-c1[nH]c2ncc(-c3cccc(C(=O)NC(C)(C)C#N)n3)cc2c1Cl [Compound P-0192] | 0.0001 to 10 µM | 0.0001 to 10 µM
CCc1ncc(-c2cc3cc(-c4cccc(C(=O)NC(C)(C)C#N)n4)cnc3[nH]2)cn1 [Compound P-0205, N-(1-cyano-1-methyl-ethyl)-6-[2-(2-ethylpyrimidin-5-yl)-1H-pyrrolo[2,3-b]pyridin-5-yl]pyridine-2-carboxamide] | 0.0001 to 10 µM | 0.0001 to 10 µM
CC(C)(C#N)NC(=O)c1cccc(-c2cnc3[nH]c(-c4ccc(F)nc4)cc3c2)n1 [Compound P-0208, N-(1-cyano-1-methyl-ethyl)-6-[2-(6-fluoro-3-pyridyl)-1H-pyrrolo[2,3-b]pyridin-5-yl]pyridine-2-carboxamide] | 0.0001 to 10 µM | 0.0001 to 10 µM
CC(C)(C#N)NC(=O)c1cccc(-c2cnc3[nH]c(-c4ccc(N5CCOCC5)nc4)cc3c2)n1 [Compound P-0197, N-(1-cyano-1-methyl-ethyl)-6-[2-(6-morpholino-3-pyridyl)-1H-pyrrolo[2,3-b]pyridin-5-yl]pyridine-2-carboxamide] | 0.0001 to 10 µM | 0.0001 to 10 µM
CC(C)(NC(=O)c1cccc(-c2cnc3[nH]c(-c4cnn(C5CCNCC5)c4)cc3c2)n1)C(N)=O [Compound P-0200, N-(2-amino-1,1-dimethyl-2-oxo-ethyl)-6-[2-[1-(4-piperidyl)pyrazol-4-yl]-1H-pyrrolo[2,3-b]pyridin-5-yl]pyridine-2-carboxamide] | 0.0001 to 10 µM | 0.0001 to 10 µM
CC(C)(C#N)NC(=O)c1cccc(-c2cnc3[nH]c(-c4ccc(C(F)(F)F)nc4)cc3c2)n1 [Compound P-0201, N-(1-cyano-1-methyl-ethyl)-6-[2-[6-(trifluoromethyl)-3-pyridyl]-1H-pyrrolo[2,3-b]pyridin-5-yl]pyridine-2-carboxamide] | 0.0001 to 10 µM | 0.0001 to 10 µM
CN[C@@H]1CCN(C(=O)c2cccc(-c3cnc4[nH]c(-c5ccccc5)cc4c3)n2)C1 [Compound P-0058, [(3R)-3-(methylamino)pyrrolidin-1-yl]-[6-(2-phenyl-1H-pyrrolo[2,3-b]pyridin-5-yl)-2-pyridyl]methanone] | 0.0001 to 10 µM | 0.0001 to 10 µM
CC(C)Oc1ncc(-c2cc3cc(-c4cccc(C(=O)NC(C)(C)C#N)n4)cnc3[nH]2)cn1 [Compound P-0191, N-(1-cyano-1-methyl-ethyl)-6-[2-(2-isopropoxypyrimidin-5-yl)-1H-pyrrolo[2,3-b]pyridin-5-yl]pyridine-2-carboxamide] | 0.0001 to 10 µM | 0.0001 to 10 µM
CNC1CCN(C(=O)c2cccc(-c3cnc4[nH]c(-c5cn(C)nc5C)cc4c3)n2)C1 (centres unmarked) [Compound P-0049, [6-[2-(1,3-dimethylpyrazol-4-yl)-1H-pyrrolo[2,3-b]pyridin-5-yl]-2-pyridyl]-[3-(methylamino)pyrrolidin-1-yl]methanone] | 0.0001 to 10 µM | 0.0001 to 10 µM
CC(C)(C#N)NC(=O)c1cccc(-c2cnc3[nH]c(-c4cnc(N5CCOCC5)nc4)cc3c2)n1 [Compound P-0198, N-(1-cyano-1-methyl-ethyl)-6-[2-(2-morpholinopyrimidin-5-yl)-1H-pyrrolo[2,3-b]pyridin-5-yl]pyridine-2-carboxamide] | 0.0001 to 10 µM | 0.0001 to 10 µM
CC(C)Oc1ccc(-c2cc3cc(-c4cccc(C(=O)NC(C)(C)C#N)n4)cnc3[nH]2)cn1 [Compound P-0190, N-(1-cyano-1-methyl-ethyl)-6-[2-(6-isopropoxy-3-pyridyl)-1H-pyrrolo[2,3-b]pyridin-5-yl]pyridine-2-carboxamide] | 0.0001 to 10 µM | 0.0001 to 10 µM
